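Protocol summary: plate cells (96-well), add compound at 5 concentrations, incubate 48 h, interpolate endpoints linearly. GI50 = concentration required for 50% inhibition of growth. TGI marks complete inhibition of growth.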
Key:
Assay in all cases: NCI tumour cell line growth inhibition, 48 h
SW-620 colon = tested on: SW-620 colon
LOX IMVI melanoma = tested on: LOX IMVI melanoma
CAKI-1 renal = tested on: CAKI-1 renal
M14 melanoma = tested on: M14 melanoma
SF-539 CNS = tested on: SF-539 CNS
IGROV1 ovarian = tested on: IGROV1 ovarian
UACC-62 melanoma = tested on: UACC-62 melanoma
MALME-3M melanoma = tested on: MALME-3M melanoma
NCI-H460 lung = tested on: NCI-H460 lung
SF-268 CNS = tested on: SF-268 CNS
HT29 colon = tested on: HT29 colon
OVCAR-5 ovarian = tested on: OVCAR-5 ovarian
PC-3 prostate = tested on: PC-3 prostate
MOLT-4 leukemia = tested on: MOLT-4 leukemia
DU-145 prostate = tested on: DU-145 prostate
UO-31 renal = tested on: UO-31 renal
MDA-MB-435 = tested on: MDA-MB-435
EKVX NSCLC = tested on: EKVX NSCLC
U251 CNS = tested on: U251 CNS
HL-60(TB) leukemia = tested on: HL-60(TB) leukemia
NCI-H226 lung = tested on: NCI-H226 lung
HOP-92 NSCLC = tested on: HOP-92 NSCLC
NCI-H522 lung = tested on: NCI-H522 lung
HOP-62 NSCLC = tested on: HOP-62 NSCLC
A498 renal = tested on: A498 renal
NCI/ADR-RES ovarian = tested on: NCI/ADR-RES ovarian
SK-MEL-2 melanoma = tested on: SK-MEL-2 melanoma
RPMI-8226 leukemia = tested on: RPMI-8226 leukemia
HCC-2998 colon = tested on: HCC-2998 colon
T-47D breast = tested on: T-47D breast
RXF 393 renal = tested on: RXF 393 renal
CCRF-CEM leukemia = tested on: CCRF-CEM leukemia
SN12C renal = tested on: SN12C renal
SK-MEL-5 melanoma = tested on: SK-MEL-5 melanoma
HCT-15 colon = tested on: HCT-15 colon
MCF7 breast = tested on: MCF7 breast
OVCAR-4 ovarian = tested on: OVCAR-4 ovarian
HS 578T breast = tested on: HS 578T breast
TK-10 renal = tested on: TK-10 renal
786-0 renal = tested on: 786-0 renal
A549 NSCLC = tested on: A549 NSCLC
OVCAR-3 ovarian = tested on: OVCAR-3 ovarian
SK-OV-3 ovarian = tested on: SK-OV-3 ovarian
ACHN renal = tested on: ACHN renal
K-562 leukemia = tested on: K-562 leukemia
BT-549 breast = tested on: BT-549 breast
OVCAR-8 ovarian = tested on: OVCAR-8 ovarian
SR leukemia = tested on: SR leukemia
UACC-257 melanoma = tested on: UACC-257 melanoma
COLO 205 colon = tested on: COLO 205 colon
SK-MEL-28 melanoma = tested on: SK-MEL-28 melanoma
SNB-75 CNS = tested on: SNB-75 CNS
SNB-19 CNS = tested on: SNB-19 CNS
KM12 colon = tested on: KM12 colon
SF-295 CNS = tested on: SF-295 CNS
MDA-MB-231 breast = tested on: MDA-MB-231 breast
HCT-116 colon = tested on: HCT-116 colon

Cn1ncc(-c2ccc3c(=O)[nH]nc(CN)c3c2)c1-c1c(F)cc2ccccc2c1C#N
GI50 (SW-620 colon): 3.05 µM | TGI (SW-620 colon): 15.1 µM | GI50 (LOX IMVI melanoma): 1.32 µM | TGI (LOX IMVI melanoma): 4.11 µM | GI50 (CAKI-1 renal): 5.53 µM | TGI (CAKI-1 renal): 19 µM | GI50 (M14 melanoma): 6.97 µM | TGI (M14 melanoma): 21.1 µM | GI50 (SF-539 CNS): 7.6 µM | TGI (SF-539 CNS): 20.8 µM | GI50 (IGROV1 ovarian): 4.63 µM | TGI (IGROV1 ovarian): 19.7 µM | GI50 (UACC-62 melanoma): 10.2 µM | TGI (UACC-62 melanoma): 23.6 µM | GI50 (MALME-3M melanoma): 4.57 µM | TGI (MALME-3M melanoma): 17.6 µM | GI50 (NCI-H460 lung): 3.67 µM | TGI (NCI-H460 lung): 14.6 µM | GI50 (SF-268 CNS): 4.74 µM | TGI (SF-268 CNS): 20.6 µM | GI50 (HT29 colon): 3.34 µM | TGI (HT29 colon): 14.5 µM | GI50 (OVCAR-5 ovarian): 11.3 µM | TGI (OVCAR-5 ovarian): 29.4 µM | GI50 (PC-3 prostate): 8.21 µM | TGI (PC-3 prostate): 23.6 µM | GI50 (MOLT-4 leukemia): 2.29 µM | TGI (MOLT-4 leukemia): 12.6 µM | GI50 (DU-145 prostate): 8.59 µM | TGI (DU-145 prostate): 21.1 µM | GI50 (UO-31 renal): 7.62 µM | TGI (UO-31 renal): 20.6 µM | GI50 (MDA-MB-435): 3.72 µM | TGI (MDA-MB-435): 14.5 µM | GI50 (EKVX NSCLC): 11.9 µM | TGI (EKVX NSCLC): 25.1 µM | GI50 (U251 CNS): 5.36 µM | TGI (U251 CNS): 17.9 µM | GI50 (HL-60(TB) leukemia): 3.42 µM | TGI (HL-60(TB) leukemia): 18.2 µM | GI50 (NCI-H226 lung): 7.69 µM | TGI (NCI-H226 lung): 24.3 µM | GI50 (HOP-92 NSCLC): 4.06 µM | TGI (HOP-92 NSCLC): 18.1 µM | GI50 (NCI-H522 lung): 4.17 µM | TGI (NCI-H522 lung): 17.7 µM | GI50 (HOP-62 NSCLC): 6.31 µM | TGI (HOP-62 NSCLC): 20.3 µM | GI50 (A498 renal): 11.7 µM | TGI (A498 renal): 23.9 µM | GI50 (NCI/ADR-RES ovarian): 12.7 µM | TGI (NCI/ADR-RES ovarian): 50.5 µM | GI50 (SK-MEL-2 melanoma): 4.63 µM | TGI (SK-MEL-2 melanoma): 16.3 µM | GI50 (RPMI-8226 leukemia): 4.78 µM | TGI (RPMI-8226 leukemia): 27.4 µM | GI50 (HCC-2998 colon): 8.63 µM | TGI (HCC-2998 colon): 20.8 µM | GI50 (T-47D breast): 3.48 µM | TGI (T-47D breast): 17.6 µM | GI50 (RXF 393 renal): 4.6 µM | TGI (RXF 393 renal): 16.6 µM | GI50 (CCRF-CEM leukemia): 10.7 µM | TGI (CCRF-CEM leukemia): 57.3 µM | GI50 (SN12C renal): 7.53 µM | TGI (SN12C renal): 20.8 µM | GI50 (SK-MEL-5 melanoma): 11 µM | TGI (SK-MEL-5 melanoma): 22.9 µM | GI50 (HCT-15 colon): 4.92 µM | TGI (HCT-15 colon): 19.1 µM | GI50 (MCF7 breast): 1.52 µM | TGI (MCF7 breast): 12.6 µM | GI50 (OVCAR-4 ovarian): 7.67 µM | TGI (OVCAR-4 ovarian): 25.2 µM | GI50 (HS 578T breast): 8.18 µM | TGI (HS 578T breast): 28.7 µM | GI50 (TK-10 renal): 10.7 µM | TGI (TK-10 renal): 24.1 µM | GI50 (786-0 renal): 5.21 µM | TGI (786-0 renal): 18.9 µM | GI50 (A549 NSCLC): 5.14 µM | TGI (A549 NSCLC): 18.3 µM | GI50 (OVCAR-3 ovarian): 6.53 µM | TGI (OVCAR-3 ovarian): 19.5 µM | GI50 (SK-OV-3 ovarian): 13.6 µM | TGI (SK-OV-3 ovarian): 26.8 µM | GI50 (ACHN renal): 4.07 µM | TGI (ACHN renal): 16.5 µM | GI50 (K-562 leukemia): 3.41 µM | TGI (K-562 leukemia): 38.3 µM | GI50 (BT-549 breast): 7.15 µM | TGI (BT-549 breast): 20.2 µM | GI50 (OVCAR-8 ovarian): 4.34 µM | TGI (OVCAR-8 ovarian): 17.5 µM | GI50 (SR leukemia): 1.1 µM | TGI (SR leukemia): 13.1 µM | GI50 (UACC-257 melanoma): 7.28 µM | TGI (UACC-257 melanoma): 20.8 µM | GI50 (COLO 205 colon): 4.8 µM | TGI (COLO 205 colon): 18.3 µM | GI50 (SK-MEL-28 melanoma): 10.6 µM | TGI (SK-MEL-28 melanoma): 23 µM | GI50 (SNB-75 CNS): 4.44 µM | TGI (SNB-75 CNS): 19.5 µM | GI50 (SNB-19 CNS): 9.44 µM | TGI (SNB-19 CNS): 24.1 µM | GI50 (KM12 colon): 5 µM | TGI (KM12 colon): 17.4 µM | GI50 (SF-295 CNS): 11.7 µM | TGI (SF-295 CNS): 24.6 µM | GI50 (MDA-MB-231 breast): 8.53 µM | TGI (MDA-MB-231 breast): 23.4 µM | GI50 (HCT-116 colon): 3.69 µM | TGI (HCT-116 colon): 14.5 µM

Reference: PubChem BioAssay (NCI)
